According to patent US12568967B2, “Compositions comprising pyridine carboxylate herbicides with synthetic auxin herbicides or auxin transport inhibitors” (priority 2018, dated 2026):
Where two headings read alike, the source gives them in different places.

Legend:
[1] = tested on: Stellaria media (chickweed, STEME); test: Greenhouse postemergence trial STEME; format: in vivo; settings: STEME
[2] = tested on: Anthemis arvensis (field chamomile, ANTAR); test: Greenhouse postemergence trial ANTAR; format: in vivo; settings: ANTAR
[3] = tested on: Amaranthus retroflexus (pigweed, AMARE); test: Greenhouse postemergence trial AMARE; format: in vivo; settings: for % visual injury: c1-2 Compound A 7.5/10;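 as to all read-outs here: Greenhouse-grown plants sprayed at second to third true leaf stage, injury rated by eye after 20-22 d versus solvent-blank sprayed controls, 0 = no injury, 100 = complete kill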
[4] = tested on: Viola tricolor (wild pansy, VIOTR); test: Greenhouse postemergence trial VIOTR;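 also: greenhouse plants sprayed at second to third true leaf stage, injury rated visually after 20-22 d against solvent-blank sprayed controls, 0 meaning no injury and 100 complete kill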
[5] = tested on: Veronica hederifolia (ivyleaf speedwell, VERHE); test: Greenhouse postemergence trial VERHE; format: in vivo; settings: VERHE
Method: (§1) Seeds of the desired test plant species were planted in a 90:10% v/v (volume/volume) mixture of PRO-MIX® BX (Premier Tech Horticulture, Quakertown, PA, USA) and PROFILE® GREENS GRADE™ (Profile Products LLC, Buffalo Grove, IL, USA) planting mixture, which typically has a pH of 5.2 to 6.2 and an organic matter content of at least 50 percent, in plastic pots with a surface area of 103.2 square centimeters (cm^2). […] The plants were grown for 7-36 days (d) in a greenhouse with an approximate 14-hour (h) photo-period which was maintained at about 23° C. during the day and 22° C. during the night. Nutrients and water were added on a regular basis and supplemental lighting was provided with overhead metal halide 1000-Watt lamps as necessary. The plants were employed for testing when they reached the second or third true leaf stage.
(§2) Emulsifiable concentrates of each of each pyridine carboxylate herbicide (Compound A or Compound B) were prepared at 100 grams acid equivalent per liter (g ae/L). The emulsifiable concentrates also included a safener, cloquintocet-mexyl, at 120 grams active ingredient per liter (g ai/L), unless otherwise noted below. An aliquot of each emulsifiable concentrate was placed in a 25 mL glass vial and diluted with an aqueous mixture of 1.25% (v/v) ACTIROB® B esterified rapeseed oil (Bayer Crop Science, Research Triangle Park, NC, USA) or MSO® Concentrate with LECI-TECH® methylated soybean oil (Loveland Products, Loveland, CO, USA) to obtain concentrated stock solutions at the highest application rate for each herbicide, based upon a 12 milliliter (mL) application volume at a rate of 187 liters per hectare (L/ha). The concentrated stock solutions were further diluted with an aqueous mixture of 1.25% v/v ACTIROB® B or MSO® Concentrate with LECI-TECH® to obtain stock solutions at reduced application rates for each herbicide. Spray solutions of the herbicide combinations (Compound A or Compound B plus synthetic auxin herbicide or auxin transport inhibitor) were prepared by adding weighed amounts or aliquots of the synthetic auxin herbicide or auxin transport inhibitor to the stock solutions of Compound A or Compound B to form 12-mL spray solutions in two-way combinations.
(§3) The spray solutions were applied to the plant material with an overhead Mandel track sprayer equipped with 8002E nozzles calibrated to deliver 187 L/ha over an application area of 0.503 square meters (m^2) at a spray height of 18 inches (43 centimeters (cm)) above the average plant canopy. Control plants were sprayed in the same manner with the solvent blank. All pyridine carboxylate herbicide (component a) application rates are given as “g ae/ha” and all synthetic auxin herbicide or auxin transport inhibitor (component b) application rates are given as “g ai/ha.”
(§4) The treated plants and control plants were placed in a greenhouse as described above and watered by sub-irrigation to prevent wash-off of the test compounds. After 20-22 d, the condition of the test plants as compared with that of the control plants was determined visually and scored on a scale of 0 to 100 percent where 0 corresponds to no injury and 100 corresponds to complete kill.

[6] = tested on: Matricaria chamomilla (wild chamomile, MATCH); test: Greenhouse postemergence trial MATCH; format: in vivo; settings: MATCH;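 also: greenhouse plants sprayed at second to third true leaf stage, injury rated by eye 20-22 d later versus solvent-blank controls on 0–100 scale, 0 no injury, 100 complete kill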
[7] = tested on: Cirsium arvense (Canadian thistle, CIRAR); test: Greenhouse postemergence trial CIRAR; format: in vivo
[8] = tested on: Capsella bursa-pastoris (shepherd's purse, CAPBP); test: Greenhouse postemergence trial CAPBP; format: in vivo; settings: CAPBP
Method: as §1, §2, §3, §4

[9] = tested on: Polygonum convolvulus (wild buckwheat, POLCO); test: Greenhouse postemergence trial POLCO; format: in vivo; settings: for % visual injury (Obs): alone 280 g/ha
Method: as §1, §2, §3, §4

[10] = tested on: Salsola kali (Russian thistle, SASKR); test: Greenhouse postemergence trial SASKR; format: in vivo; settings: SASKR;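 also: greenhouse plants sprayed at second or third true leaf stage, injury rated by eye after 20-22 d against solvent-blank controls, 0 meaning no injury, 100 complete kill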
[11] = tested on: Veronica persica (bird's-eye speedwell, VERPE); test: Greenhouse postemergence trial VERPE; format: in vivo
[12] = tested on: Lamium purpureum (purple deadnettle, LAMPU); test: Greenhouse postemergence trial LAMPU
[13] = tested on: Sinapis arvensis (wild mustard, SINAR); test: Greenhouse postemergence trial SINAR; format: in vivo; settings: SINAR
[14] = tested on: Matricaria discoidea (pineapple weed, MATMT); test: Greenhouse postemergence trial MATMT; format: in vivo; settings: MATMT
[15] = tested on: Papaver rhoeas (corn poppy), herbicide-resistant (PAPRH-R); test: Greenhouse postemergence trial PAPRH-R; format: in vivo; settings: PAPRH-R
Method: as §1, §2, §3, §4

[16] = tested on: Triticum aestivum (spring wheat, TRZAS); format: in vivo; settings: for % visual injury (Obs): alone 280 g/ha; for % visual injury (crop phytotoxicity): c1-2 Compound A 7.5/10
[17] = tested on: Papaver rhoeas (corn poppy, PAPRH); test: Greenhouse postemergence trial PAPRH; format: in vivo; settings: PAPRH
[18] = tested on: Chenopodium album L. (common lambsquarters, CHEAL); test: Greenhouse postemergence trial CHEAL; format: in vivo; settings: for % visual injury: c1-2 Compound A 7.5/10;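 as to all read-outs here: greenhouse plants sprayed at second to third true leaf stage, injury rated by eye after 20-22 d versus solvent-blank sprayed controls, 0 = no injury, 100 = complete kill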
Method: The plants were grown for 7-36 days (d) in a greenhouse with an approximate 14-hour (h) photo-period which was maintained at about 23° C. during the day and 22° C. during the night. Nutrients and water were added on a regular basis and supplemental lighting was provided with overhead metal halide 1000-Watt lamps as necessary. The plants were employed for testing when they reached the second or third true leaf stage.
The emulsifiable concentrates also included a safener, cloquintocet-mexyl, at 120 grams active ingredient per liter (g ai/L), unless otherwise noted below.
Control plants were sprayed in the same manner with the solvent blank. All pyridine carboxylate herbicide (component a) application rates are given as “g ae/ha” and all synthetic auxin herbicide or auxin transport inhibitor (component b) application rates are given as “g ai/ha.”
as §4

[19] = tested on: Brassica napus (winter rape, BRSNW); test: Greenhouse postemergence trial BRSNW; format: in vivo
[20] = tested on: Hordeum vulgare (winter barley, HORVW); test: Greenhouse postemergence crop phytotoxicity HORVW; format: in vivo; settings: HORVW
Method: as §1, §2, §3, §4

[21] = tested on: Matricaria inodora (false chamomile, MATIN); test: Greenhouse postemergence trial MATIN; format: in vivo; settings: MATIN
[22] = tested on: Kochia scoparia (kochia, KCHSC); test: Greenhouse postemergence trial KCHSC; format: in vivo; settings: KCHSC; for % visual injury (Obs): alone 280 g/ha
Method: as §1, §2, §3, §4

[23] = tested on: Hordeum vulgare (spring barley, HORVS); format: in vivo; settings: for % visual injury (Obs): alone 280 g/ha
[24] = tested on: Cyanus segetum (cornflower, CENCY); test: Greenhouse postemergence trial CENCY; format: in vivo; settings: CENCY
[25] = tested on: Triticum aestivum (winter wheat, TRZAW); test: Greenhouse postemergence crop phytotoxicity TRZAW; format: in vivo; settings: TRZAW
[26] = tested on: Viola arvensis (field violet, VIOAR); test: Greenhouse postemergence trial VIOAR; format: in vivo; settings: VIOAR
[27] = tested on: Brassica napus (spring rape, BRSNN); test: Greenhouse postemergence trial BRSNN; format: in vivo
[28] = partner herbicide 560 g/ha alone
[29] = c3 2,4-D-EHE 280, c4-5 A 7.5/10 + 2,4-D-EHE 280 g/ha
[30] = c3 Quinclorac 140, c4-5 A 7.5/10 + Quinclorac 140 g/ha
[31] = Papaver rhoeas, post-emergence, Quinclorac 560 g/ha, read-out: % visual injury Obs

Cc1cc(Cl)ccc1OC(C)C(=O)O (stereo not shown) [Mecoprop]
% visual injury, Obs ([1]; applied alone, 560 g/ha): 30%
% visual injury, Obs ([2]; applied alone, 560 g/ha): 10%
% visual injury (Obs) ([3]; AMARE, alone 280 g/ha): 58%
% visual injury, Obs ([4]; VIOTR, applied alone, 560 g/ha): 65%
% visual injury, Obs ([5]; applied alone, 560 g/ha): 50%
% visual injury (Obs) ([6]; alone 280 g/ha): 18%
% visual injury, Obs ([6]; applied alone, 560 g/ha): 10%
% visual injury (Obs) ([7]; CIRAR, alone 280 g/ha): 68%
% visual injury, Obs ([7]; CIRAR, applied alone, 560 g/ha): 70%
% visual injury, Obs ([8]; applied alone, 560 g/ha): 60%
% visual injury (Obs) ([9]; POLCO): 10%
% visual injury, Obs ([9]; POLCO, applied alone, 560 g/ha): 20%
% visual injury, Obs ([10]; applied alone, 560 g/ha): 50%
% visual injury, Obs ([11]; VERPE, applied alone, 560 g/ha): 30%
% visual injury, Obs ([12]; LAMPU, applied alone, 560 g/ha): 10%
% visual injury (Obs) ([13]; alone 280 g/ha): 80%
% visual injury, Obs ([13]; applied alone, 560 g/ha): 95%
% visual injury, Obs ([14]; applied alone, 560 g/ha): 10%
% visual injury, Obs ([15]; applied alone, 560 g/ha): 30%
% visual injury (Obs) ([16]; TRZAS): 0%
% visual injury, Obs ([16]; TRZAS, applied alone, 560 g/ha): 0%
% visual injury, Obs ([17]; applied alone, 560 g/ha): 65%
% visual injury (Obs) ([18]; CHEAL, alone 280 g/ha): 73%
% visual injury (Obs) ([19]; BRSNW, alone 280 g/ha): 63%
plant injury at 560 g/ha ([19]; Brassica napus, post-emergence, BRSNW, applied alone, 560 g/ha, read-out: % visual injury, Obs): 75%
% visual injury, Obs ([20]; applied alone, 560 g/ha): 0%
% visual injury, Obs ([21]; applied alone, 560 g/ha): 65%
% visual injury (Obs) [22]: 68%
% visual injury, Obs ([22]; applied alone, 560 g/ha): 80%
% visual injury (Obs) ([23]; HORVS): 0%
% visual injury, Obs ([23]; HORVS, applied alone, 560 g/ha): 0%
% visual injury, Obs ([24]; applied alone, 560 g/ha): 100%
% visual injury, Obs ([25]; applied alone, 560 g/ha): 0%
% visual injury, Obs ([26]; applied alone, 560 g/ha): 10%

CCCCC(CC)COC(=O)COc1ccc(Cl)cc1Cl [2,4-D-EHE, 2,4-D-2-ethylhexyl, reference compound]
visual injury, Obs [1, 28]: 10%
visual injury, Obs [2, 28]: 60%
AMARE % visual injury Obs ([3]; 2,4-D-EHE 280 g/ha (Table 36)): 45%
% visual injury [3, 29]: 70%
visual injury, Obs ([4]; VIOTR, partner herbicide 560 g/ha alone): 65%
visual injury, Obs [5, 28]: 70%
visual injury, Obs [6, 28]: 10%
CIRAR % visual injury Obs ([7]; 2,4-D-EHE 280 g/ha (Table 36)): 45%
visual injury, Obs ([7]; CIRAR, partner herbicide 560 g/ha alone): 65%
visual injury, Obs [8, 28]: 70%
POLCO % visual injury Obs ([9]; 2,4-D-EHE 280 g/ha (Table 36)): 23%
POLCO Δ (Obs minus Exp) ([9]; 2,4-D-EHE 280 g/ha (Table 36)): 11%
visual injury, Obs ([9]; POLCO, partner herbicide 560 g/ha alone): 30%
visual injury, Obs [10, 28]: 65%
visual injury, Obs ([11]; VERPE, partner herbicide 560 g/ha alone): 65%
visual injury, Obs ([12]; LAMPU, partner herbicide 560 g/ha alone): 20%
visual injury, Obs [13, 28]: 85%
visual injury, Obs [14, 28]: 5%
visual injury, Obs [15, 28]: 50%
% visual injury (crop phytotoxicity) [16, 29]: 0%
visual injury, Obs [17, 28]: 60%
% visual injury [18, 29]: 75%
BRSNW % visual injury Obs ([19]; 2,4-D-EHE 280 g/ha (Table 36)): 65%
BRSNW Δ (Obs minus Exp) ([19]; 2,4-D-EHE 280 g/ha (Table 36)): 3%
visual injury, Obs ([19]; BRSNW, partner herbicide 560 g/ha alone): 100%
visual injury, Obs [21, 28]: 10%
visual injury, Obs [22, 28]: 65%
visual injury, Obs [24, 28]: 100%
visual injury, Obs [26, 28]: 60%

CNC.O=C(O)COc1ccc(Cl)cc1Cl [2,4-D DMA]
% visual injury (Obs) ([4]; VIOTR, alone 280 g/ha): 65%
% visual injury (Obs) ([9]; POLCO): 55%
% visual injury (Obs) ([16]; TRZAS): 5%
% visual injury (Obs) [22]: 10%
% visual injury (Obs) ([23]; HORVS): 0%
% visual injury (Obs) ([27]; BRSNN, alone 280 g/ha): 83%

O=C(O)c1c(Cl)ccc2cc(Cl)cnc12 [Quinclorac, quinclorac, reference compound]
pest or weed control ([1]; Stellaria media, post-emergence, Quinclorac 560 g/ha, read-out: % visual injury Obs): 5%
pest or weed control ([2]; Anthemis arvensis, post-emergence, Quinclorac 560 g/ha, read-out: % visual injury Obs): 0%
% visual injury [3, 30]: 0%
pest or weed control at 560 g/ha ([4]; Viola tricolor, post-emergence, read-out: % visual injury Obs): 10%
pest or weed control ([5]; Veronica hederifolia, post-emergence, Quinclorac 560 g/ha, read-out: % visual injury Obs): 30%
pest or weed control ([6]; Matricaria chamomilla, post-emergence, Quinclorac 560 g/ha, read-out: % visual injury Obs): 10%
pest or weed control ([7]; Cirsium arvense, post-emergence, CIRAR, Quinclorac 560 g/ha, read-out: % visual injury Obs): 30%
pest or weed control ([8]; Capsella bursa-pastoris, post-emergence, Quinclorac 560 g/ha, read-out: % visual injury Obs): 0%
pest or weed control ([9]; Fallopia convolvulus, post-emergence, POLCO, Quinclorac 560 g/ha, read-out: % visual injury Obs): 10%
pest or weed control ([10]; Salsola kali, post-emergence, Quinclorac 560 g/ha, read-out: % visual injury Obs): 10%
pest or weed control ([11]; Veronica persica, post-emergence, VERVE, Quinclorac 560 g/ha, read-out: % visual injury Obs): 50%
pest or weed control at 560 g/ha ([12]; Lamium purpureum, post-emergence, read-out: % visual injury Obs): 10%
pest or weed control ([13]; Mutarda arvensis, post-emergence, Quinclorac 560 g/ha, read-out: % visual injury Obs): 10%
pest or weed control ([14]; Matricaria discoidea, post-emergence, Quinclorac 560 g/ha, read-out: % visual injury Obs): 0%
pest or weed control [15, 31]: 50%
% visual injury Obs ([16]; TRZAS, Quinclorac 560 g/ha): 0%
% visual injury (crop phytotoxicity) [16, 30]: 0%
pest or weed control [17, 31]: 10%
% visual injury [18, 30]: 0%
plant injury ([19]; Brassica napus, post-emergence, BRSNW, Quinclorac 560 g/ha, read-out: % visual injury Obs): 10%
% visual injury Obs ([20]; Quinclorac 560 g/ha): 0%
pest or weed control ([21]; Tripleurospermum inodorum, post-emergence, Quinclorac 560 g/ha, read-out: % visual injury Obs): 0%
pest or weed control ([22]; Bassia scoparia, post-emergence, Quinclorac 560 g/ha, read-out: % visual injury Obs): 10%
% visual injury Obs ([23]; HORVS, Quinclorac 560 g/ha): 0%
% visual injury (crop phytotoxicity) ([23]; c1-2 Compound A 7.5/10, c3 Quinclorac 140, c4-5 A 7.5/10 + Quinclorac 140 g/ha): 5%
pest or weed control ([24]; Centaurea cyanus, post-emergence, Quinclorac 560 g/ha, read-out: % visual injury Obs): 60%
% visual injury Obs ([25]; Quinclorac 560 g/ha): 0%
pest or weed control ([26]; Viola arvensis, post-emergence, Quinclorac 560 g/ha, read-out: % visual injury Obs): 30%

O=C(O)COc1ccc(Cl)cc1Cl [2,4-D Choline, 2,4-D choline, reference compound]
% visual injury, Obs (crop phytotoxicity) ([16]; Triticum aestivum (spring wheat, TRZAS), in vivo): 0%
% visual injury, Obs (crop phytotoxicity) ([23]; Hordeum vulgare (spring barley, HORVS), in vivo): 0%
% visual injury, Obs ([27]; in vivo): 80%
